Here are results for 12 compounds from patent US20250304596A1, “PYRAZINE DERIVATIVES AND USES THEREOF” (FOGHORN THERAPEUTICS INC., priority 2022, published 2025).

Structures are written as SMILES.

One test deals with T1, HiBit-BRM fusion protein (Homo sapiens, UniProt P51531).
T1 construct: expressed in transfected cells
Nature of the test: HiBiT-BRM cell-based degradation assay (Nano-Glo HiBiT Lytic Detection, 24 h). As to conditions: stable HeLa cell line expressing HiBiT-BRM; for DC50: read-out: BRM HiBit Degradation IC50. Here is the method:
(§1) Procedure: A stable HeLa cell line expressing HiBiT-BRM was generated. On day 0, 5000 cells were seeded in 40 μL of media into each well of 384-well cell culture plates. On day 1, cells were treated with 120 nL DMSO or 120 nL of 3-fold serially DMSO-diluted compounds (10 points in duplicate with 30 μM as final top dose). Subsequently plates were incubated for 24 h in a standard tissue culture incubator and equilibrated at room temperature for 15 minutes. Nano-Glo HiBiT Lytic Detection System (Promega N3050) reagent was freshly prepared and 20 ul was added to each well. Upon addition of this LgBit-containing reagent, the HiBiT and LgBiT proteins associate to form the luminescent NanoBiT Iuciferase. The plates were shaken for 10 minutes at room temperature and the bioluminescence read using an EnVision plate reader (PerkinElmer).
(§2) The degradation % was calculated using the following formula: % degradation=100%-100%×(LumSample−LumLC)/(LumHC−LumLC). DMSO treated cells are employed as High Control (HC) and 2 μM of a known BRM/BRG1 degrader standard treated cells are employed as Low Control (LC).

For test [1], the target named is T2, HiBit-BRG1 fusion protein (Homo sapiens, UniProt P51532).
T2 construct: expressed in transfected cells
Nature of the test: HiBiT-BRG1 cell-based degradation assay (Nano-Glo HiBiT Lytic Detection, 24 h). The following applies: stable HeLa cell line expressing HiBit-BRG1 and LgBit; for Dmax: read-out: BRG1 HiBit Degradation Maximum (%); for DC50: read-out: BRMG1 HiBit Degradation IC50. As for the experimental part:
as §1
For measurement of BRG1 degradation, a stable HeLa cell line expressing HiBit-BRG1 and LgBit was generated. The same protocol as above was then followed.
as §2
For orientation: HiBiT is a short tag that completes a luciferase, so light tracks the accessible tagged protein.

T2 sequence (P51532 whole entry, the tested form may be a part): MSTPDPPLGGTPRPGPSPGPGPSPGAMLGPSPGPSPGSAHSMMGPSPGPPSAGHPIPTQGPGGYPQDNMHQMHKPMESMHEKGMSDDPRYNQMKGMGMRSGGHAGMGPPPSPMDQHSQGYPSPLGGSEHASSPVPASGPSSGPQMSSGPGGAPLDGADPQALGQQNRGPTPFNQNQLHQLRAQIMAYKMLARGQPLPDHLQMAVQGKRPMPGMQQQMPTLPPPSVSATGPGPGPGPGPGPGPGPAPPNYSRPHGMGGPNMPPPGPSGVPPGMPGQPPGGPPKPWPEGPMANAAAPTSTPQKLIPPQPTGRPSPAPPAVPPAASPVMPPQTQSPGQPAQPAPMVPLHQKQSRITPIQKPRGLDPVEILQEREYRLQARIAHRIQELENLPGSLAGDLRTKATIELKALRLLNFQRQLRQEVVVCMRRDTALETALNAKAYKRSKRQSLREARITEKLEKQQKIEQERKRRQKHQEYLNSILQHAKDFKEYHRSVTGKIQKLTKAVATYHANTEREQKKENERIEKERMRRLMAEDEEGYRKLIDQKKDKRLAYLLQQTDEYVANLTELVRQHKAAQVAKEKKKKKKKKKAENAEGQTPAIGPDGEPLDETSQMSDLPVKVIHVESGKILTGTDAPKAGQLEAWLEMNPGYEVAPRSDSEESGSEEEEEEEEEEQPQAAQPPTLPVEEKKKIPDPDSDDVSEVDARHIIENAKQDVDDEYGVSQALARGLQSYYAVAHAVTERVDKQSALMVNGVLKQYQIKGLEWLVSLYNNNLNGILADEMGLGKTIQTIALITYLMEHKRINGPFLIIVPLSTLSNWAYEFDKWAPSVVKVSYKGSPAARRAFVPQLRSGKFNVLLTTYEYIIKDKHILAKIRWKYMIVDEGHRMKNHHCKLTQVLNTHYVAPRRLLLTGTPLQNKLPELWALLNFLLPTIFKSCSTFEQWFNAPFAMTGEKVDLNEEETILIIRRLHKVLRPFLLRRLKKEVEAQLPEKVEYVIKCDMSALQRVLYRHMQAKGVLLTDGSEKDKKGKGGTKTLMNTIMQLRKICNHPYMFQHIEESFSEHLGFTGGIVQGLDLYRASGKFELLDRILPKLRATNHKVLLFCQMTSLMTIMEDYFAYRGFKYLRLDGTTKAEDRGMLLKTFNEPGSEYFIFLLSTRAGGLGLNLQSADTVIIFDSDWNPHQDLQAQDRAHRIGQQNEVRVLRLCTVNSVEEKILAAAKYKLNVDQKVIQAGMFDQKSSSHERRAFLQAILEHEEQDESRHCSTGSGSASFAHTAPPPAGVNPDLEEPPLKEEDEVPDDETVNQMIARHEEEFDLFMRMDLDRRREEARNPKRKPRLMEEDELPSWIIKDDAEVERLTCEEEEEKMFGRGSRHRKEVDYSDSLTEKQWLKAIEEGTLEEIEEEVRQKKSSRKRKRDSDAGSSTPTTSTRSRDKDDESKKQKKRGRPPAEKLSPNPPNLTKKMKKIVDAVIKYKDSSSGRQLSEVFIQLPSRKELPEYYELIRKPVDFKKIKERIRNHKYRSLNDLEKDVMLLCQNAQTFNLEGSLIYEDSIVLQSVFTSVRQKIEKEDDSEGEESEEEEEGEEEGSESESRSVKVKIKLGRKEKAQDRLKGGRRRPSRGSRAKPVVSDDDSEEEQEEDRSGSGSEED
T1 sequence (P51531 whole entry, the tested form may be a part): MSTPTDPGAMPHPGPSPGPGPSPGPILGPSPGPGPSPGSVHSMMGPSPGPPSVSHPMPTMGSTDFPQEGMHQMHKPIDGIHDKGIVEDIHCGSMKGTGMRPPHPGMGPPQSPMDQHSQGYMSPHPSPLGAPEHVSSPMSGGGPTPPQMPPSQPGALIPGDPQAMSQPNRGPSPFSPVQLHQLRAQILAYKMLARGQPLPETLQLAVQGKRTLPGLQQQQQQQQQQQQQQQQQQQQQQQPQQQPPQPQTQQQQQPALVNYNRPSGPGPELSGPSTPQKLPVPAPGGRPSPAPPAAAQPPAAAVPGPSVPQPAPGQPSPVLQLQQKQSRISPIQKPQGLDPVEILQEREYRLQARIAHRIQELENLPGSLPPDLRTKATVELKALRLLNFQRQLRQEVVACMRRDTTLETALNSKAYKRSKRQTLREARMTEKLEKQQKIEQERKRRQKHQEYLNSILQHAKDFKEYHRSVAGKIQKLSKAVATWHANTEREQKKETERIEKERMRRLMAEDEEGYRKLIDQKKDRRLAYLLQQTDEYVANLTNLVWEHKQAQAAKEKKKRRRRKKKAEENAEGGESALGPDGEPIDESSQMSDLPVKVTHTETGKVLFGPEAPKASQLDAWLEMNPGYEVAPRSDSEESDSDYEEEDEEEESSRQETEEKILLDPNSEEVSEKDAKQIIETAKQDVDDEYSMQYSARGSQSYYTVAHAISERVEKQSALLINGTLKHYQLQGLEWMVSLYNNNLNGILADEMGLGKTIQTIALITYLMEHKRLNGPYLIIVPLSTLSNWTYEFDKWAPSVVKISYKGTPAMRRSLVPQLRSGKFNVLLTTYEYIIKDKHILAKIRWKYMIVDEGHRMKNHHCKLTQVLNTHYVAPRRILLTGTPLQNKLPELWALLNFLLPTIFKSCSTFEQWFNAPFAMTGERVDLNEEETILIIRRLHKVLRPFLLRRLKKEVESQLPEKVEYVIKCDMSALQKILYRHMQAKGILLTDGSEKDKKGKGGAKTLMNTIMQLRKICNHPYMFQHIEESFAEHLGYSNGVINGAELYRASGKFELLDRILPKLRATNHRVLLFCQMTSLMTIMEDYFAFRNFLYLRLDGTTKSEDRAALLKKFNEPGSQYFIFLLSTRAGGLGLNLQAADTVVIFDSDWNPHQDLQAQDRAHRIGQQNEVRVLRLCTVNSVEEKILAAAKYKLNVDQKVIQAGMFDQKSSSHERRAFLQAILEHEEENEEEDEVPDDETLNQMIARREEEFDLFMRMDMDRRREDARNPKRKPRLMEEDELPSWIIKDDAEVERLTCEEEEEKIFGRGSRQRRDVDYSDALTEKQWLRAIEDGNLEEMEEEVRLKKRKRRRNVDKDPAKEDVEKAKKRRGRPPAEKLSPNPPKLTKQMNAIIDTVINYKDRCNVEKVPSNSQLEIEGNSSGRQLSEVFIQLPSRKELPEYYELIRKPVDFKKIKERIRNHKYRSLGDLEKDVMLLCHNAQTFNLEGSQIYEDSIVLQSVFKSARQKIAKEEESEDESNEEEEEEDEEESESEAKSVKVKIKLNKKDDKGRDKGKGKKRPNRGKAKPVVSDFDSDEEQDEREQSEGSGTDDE

As for `Cc1cc(-c2cc([C@H](C(=O)N3C[C@H](O)C[C@H]3C(=O)N[C@@H](C)c3ccc(-c4scnc4C)cc3)C(C)C)on2)ccc1N1CCC(c2sc3nnc(-c4ccccc4O)cc3c2C)CC1` (single isomer, unassigned) [Compound 3], on HiBit-BRM fusion protein, the “BRM HiBit Degradation Maximum (%)” value is listed as “A (“A” indicates maximum degradation ≥75%)” and the DC50 was above 10 nM. In test [1], the Dmax was below 50% and the DC50 was above 1000 nM.

For `Cc1ncsc1-c1ccc([C@H](C)NC(=O)[C@@H]2C[C@@H](O)CN2C(=O)[C@@H](c2cc(-c3ccc(N4CCC(c5sc6nnc(-c7ccccc7O)cc6c5C)CC4)cc3F)no2)C(C)C)cc1` [Compound 4, (2S,4R)-1-((R)-2-(3-(2-fluoro-4-(4-(3-(2-hydroxyphenyl)-5-methylthieno[2,3-c]pyridazin-6-yl)piperidin-1-yl)phenyl)isoxazol-5-yl)-3-methylbutanoyl)-4-hydroxy-N-((S)-1-(4-(4-methylthiazol-5-yl)phenyl)ethyl)pyrrolidine-2-carboxamide], on HiBit-BRM fusion protein, the “BRM HiBit Degradation Maximum (%)” value is listed as “A (“A” indicates maximum degradation ≥75%)” and the DC50 was below 10 nM. In addition, in test [1], the Dmax was below 50% and the DC50 is above 1000 nM.

Consider `Cc1ncsc1-c1ccc([C@H](C)NC(=O)[C@@H]2C[C@@H](O)CN2C(=O)[C@@H](c2cc(N3CCC4(CC[C@H](c5sc6nnc(-c7ccccc7O)cc6c5C)C4)CC3)no2)C(C)C)cc1` [Compound 81, (2S,4R)-4-hydroxy-1-((R)-2-(3-((S)-2-(3-(2-hydroxyphenyl)-5-methylthieno[2,3-c]pyridazin-6-yl)-8-azaspiro[4.5]decan-8-yl)isoxazol-5-yl)-3-methylbutanoyl)-N-((S)-1-(4-(4-methylthiazol-5-yl)phenyl)ethyl)pyrrolidine-2-carboxamide], for which, on HiBit-BRM fusion protein, the “BRM HiBit Degradation Maximum (%)” value was “A (“A” indicates maximum degradation ≥75%)” and the DC50 was above 10 nM. Moreover, the Dmax in test [1] is below 50%.

As for `Cc1ncsc1-c1ccc([C@H](C)NC(=O)[C@@H]2C[C@@H](O)CN2C(=O)[C@@H](c2cc(-c3ccc(N4CCC(c5cc6cc(-c7ccccc7O)nnc6s5)CC4)nn3)no2)C(C)C)cc1` [Compound 33, (2S,4R)-4-hydroxy-1-((R)-2-(3-(6-(4-(3-(2-hydroxyphenyl)thieno[2,3-c]pyridazin-6-yl)piperidin-1-yl)pyridazin-3-yl)isoxazol-5-yl)-3-methylbutanoyl)-N-((S)-1-(4-(4-methylthiazol-5-yl)phenyl)ethyl)pyrrolidine-2-carboxamide], at HiBit-BRM fusion protein, the “BRM HiBit Degradation Maximum (%)” value was “A (“A” indicates maximum degradation ≥75%)” and the DC50 was above 10 nM. Further, in test [1], the Dmax was below 50% and the DC50 is above 1000 nM.

With `Cc1ncsc1-c1ccc([C@H](C)NC(=O)[C@@H]2C[C@@H](O)CN2C(=O)[C@@H](c2cc(-c3ccc(N4CCC(c5sc6nnc(-c7ccccc7O)cc6c5C)CC4)cc3)no2)C(C)C)cc1` [Compound 26, (2S,4R)-4-hydroxy-1-((R)-2-(3-(4-(4-(3-(2-hydroxyphenyl)-5-methylthieno[2,3-c]pyridazin-6-yl)piperidin-1-yl)phenyl)isoxazol-5-yl)-3-methylbutanoyl)-N-((S)-1-(4-(4-methylthiazol-5-yl)phenyl)ethyl)pyrrolidine-2-carboxamide], at HiBit-BRM fusion protein, the “BRM HiBit Degradation Maximum (%)” value was “A (“A” indicates maximum degradation ≥75%)” and the DC50 is below 10 nM. Besides, in test [1], the Dmax was below 50% and the DC50 is above 1000 nM.

For `Cc1ncsc1-c1ccc([C@H](C)NC(=O)[C@@H]2C[C@@H](O)CN2C(=O)[C@@H](c2cc(C3CCN(c4cnc(N5CCC(c6sc7nnc(-c8ccccc8O)cc7c6C)CC5)nc4)CC3)no2)C(C)C)cc1` [Compound 100, (2S,4R)-4-hydroxy-1-[(2R)-2-{3-[1-(2-{4-[3-(2-hydroxyphenyl)-5-methylthieno[2,3-c]pyridazin-6-yl]piperidin-1-yl}pyrimidin-5-yl)piperidin-4-yl]-1,2-oxazol-5-yl}-3-methylbutanoyl]-N-[(1S)-1-[4-(4-methyl-1,3-thiazol-5-yl)phenyl]ethyl]pyrrolidine-2-carboxamide], at HiBit-BRM fusion protein, the “BRM HiBit Degradation Maximum (%)” value is given as “A (“A” indicates maximum degradation ≥75%)” and the DC50 was below 10 nM. Further, in test [1], the Dmax was above 50% and the DC50 is above 10 nM.

In the case of `Cc1ncsc1-c1ccc([C@H](C)NC(=O)[C@@H]2C[C@@H](O)CN2C(=O)[C@@H](c2cc(-c3ccc(N4CCC(c5sc6nnc(-c7ccccc7O)cc6c5C)CC4)nn3)no2)C(C)C)cc1` [Compound 57, (2S,4R)-4-hydroxy-1-((R)-2-(3-(6-(4-(3-(2-hydroxyphenyl)-5-methylthieno[2,3-c]pyridazin-6-yl)piperidin-1-yl)pyridazin-3-yl)isoxazol-5-yl)-3-methylbutanoyl)-N-((S)-1-(4-(4-methylthiazol-5-yl)phenyl)ethyl)pyrrolidine-2-carboxamide], at HiBit-BRM fusion protein, the “BRM HiBit Degradation Maximum (%)” value is “A (“A” indicates maximum degradation ≥75%)” and the DC50 is below 10 nM. In test [1], the Dmax was below 50% and the DC50 was above 1000 nM.

In the case of `Cc1ncsc1-c1ccc([C@H](C)NC(=O)[C@@H]2C[C@@H](O)CN2C(=O)[C@@H](c2cc(-c3cnc(N4CCC(c5sc6nnc(-c7ccccc7O)cc6c5C5CC5)CC4)nc3)no2)C(C)C)cc1` [Compound 84, (2S,4R)-1-((R)-2-(3-(2-(4-(5-cyclopropyl-3-(2-hydroxyphenyl)thieno[2,3-c]pyridazin-6-yl)piperidin-1-yl)pyrimidin-5-yl)isoxazol-5-yl)-3-methylbutanoyl)-4-hydroxy-N-((S)-1-(4-(4-methylthiazol-5-yl)phenyl)ethyl)pyrrolidine-2-carboxamide], on HiBit-BRM fusion protein, the “BRM HiBit Degradation Maximum (%)” value was “B (“B” indicates maximum degradation ≥50%)” and the DC50 is above 10 nM. Moreover, the Dmax in test [1] is below 50%.

`Cc1ncsc1-c1ccc([C@H](C)NC(=O)[C@@H]2C[C@@H](O)CN2C(=O)[C@@H](c2cc(-c3cnc(N4CCC(c5sc6nnc(-c7ccccc7O)cc6c5C)CC4)cn3)no2)C(C)C)cc1` [Compound 28, (2S,4R)-4-hydroxy-1-((R)-2-(3-(5-(4-(3-(2-hydroxyphenyl)-5-methylthieno[2,3-c]pyridazin-6-yl)piperidin-1-yl)pyrazin-2-yl)isoxazol-5-yl)-3-methylbutanoyl)-N-((S)-1-(4-(4-methylthiazol-5-yl)phenyl)ethyl)pyrrolidine-2-carboxamide]: at HiBit-BRM fusion protein, the “BRM HiBit Degradation Maximum (%)” value was “A (“A” indicates maximum degradation ≥75%)” and the DC50 was below 10 nM. In test [1], the Dmax is below 50% and the DC50 was above 1000 nM.

With `Cc1ncsc1-c1ccc([C@H](C)NC(=O)[C@@H]2C[C@@H](O)CN2C(=O)[C@@H](c2cc(-c3ccc(N4CC(c5cc6cc(-c7ccccc7O)nnc6s5)C4)nn3)no2)C(C)C)cc1` [Compound 24, (2S,4R)-4-hydroxy-1-((R)-2-(3-(6-(3-(3-(2-hydroxyphenyl)thieno[2,3-c]pyridazin-6-yl)azetidin-1-yl)pyridazin-3-yl)isoxazol-5-yl)-3-methylbutanoyl)-N-((S)-1-(4-(4-methylthiazol-5-yl)phenyl)ethyl)pyrrolidine-2-carboxamide], on HiBit-BRM fusion protein, the “BRM HiBit Degradation Maximum (%)” value is on record as “A (“A” indicates maximum degradation ≥75%)” and the DC50 is above 10 nM. In addition, in test [1], the Dmax was above 50% and the DC50 was above 100 nM.

Turning to `Cc1ncsc1-c1ccc([C@H](C)NC(=O)[C@@H]2C[C@@H](O)CN2C(=O)[C@@H](c2cc(-c3cnc(N4CC5(CC(c6cc7nnc(-c8ccccc8O)cc7s6)C5)C4)nc3)no2)C(C)C)cc1` [Compound 17, (2S,4R)-4-hydroxy-1-((R)-2-(3-(2-(6-(3-(2-hydroxyphenyl)thieno[3,2-c]pyridazin-6-yl)-2-azaspiro[3.3]heptan-2-yl)pyrimidin-5-yl)isoxazol-5-yl)-3-methylbutanoyl)-N-((S)-1-(4-(4-methylthiazol-5-yl)phenyl)ethyl)pyrrolidine-2-carboxamide], on HiBit-BRM fusion protein, the “BRM HiBit Degradation Maximum (%)” value is given as “A (“A” indicates maximum degradation ≥75%)” and the DC50 was below 10 nM. In addition, in test [1], the Dmax was above 75% and the DC50 was above 10 nM.

On to `Cc1ncsc1-c1ccc([C@H](C)NC(=O)[C@@H]2C[C@@H](O)CN2C(=O)[C@@H](c2cc(-c3c(C)nc(N4CCC(c5sc6nnc(-c7ccccc7O)cc6c5C)CC4)nc3C)no2)C(C)C)cc1` [Compound 11, (2S,4R)-4-hydroxy-1-((R)-2-(3-(2-(4-(3-(2-hydroxyphenyl)-5-methylthieno[2,3-c]pyridazin-6-yl)piperidin-1-yl)-4,6-dimethylpyrimidin-5-yl)isoxazol-5-yl)-3-methylbutanoyl)-N-((S)-1-(4-(4-methylthiazol-5-yl)phenyl)ethyl)pyrrolidine-2-carboxamide], for which, on HiBit-BRM fusion protein, the “BRM HiBit Degradation Maximum (%)” value is “A (“A” indicates maximum degradation ≥75%)” and the DC50 is below 10 nM. Also, in test [1], the Dmax is above 50% and the DC50 is above 10 nM.
